# According to patent US20130197189A1, “Method For Synthesizing A Cyclic Multivalent Peptide Using A Thiol-Mediated Reaction” (The Regents of the University of Colorado, A Body Corporate, priority 2010, published 2013):
# Read-outs that look alike come from different tables or passages of the source. *1 amine or outer side, *2 acyl side, *3 side chain or, on linkers, in order; H or OH if unused. Where a SMILES comes first, the peptide text is derived from it. Bridges are numbered along the chain shown (N, C = ends). [ ]: non-standard residue; d: D form. X2 = O=C(C1CC2CC1C([*:1])C2)[*:2]; X1 = O=C(OCCC[*:1])[*:2]
# What was measured:
# [1] = biological target: T1, GPIIb/IIIa (Homo sapiens, UniProt P05106+P08514); experiment: Fibrinogen binding ELISA (competitive binding ELISA: inhibition of fibrinogen binding to GPIIb/IIIa)
# T1 construct: purchased Enzyme Research Laboratories (South Bend, Ind.)
# T1 sequence (P08514 32-887 limits assumed): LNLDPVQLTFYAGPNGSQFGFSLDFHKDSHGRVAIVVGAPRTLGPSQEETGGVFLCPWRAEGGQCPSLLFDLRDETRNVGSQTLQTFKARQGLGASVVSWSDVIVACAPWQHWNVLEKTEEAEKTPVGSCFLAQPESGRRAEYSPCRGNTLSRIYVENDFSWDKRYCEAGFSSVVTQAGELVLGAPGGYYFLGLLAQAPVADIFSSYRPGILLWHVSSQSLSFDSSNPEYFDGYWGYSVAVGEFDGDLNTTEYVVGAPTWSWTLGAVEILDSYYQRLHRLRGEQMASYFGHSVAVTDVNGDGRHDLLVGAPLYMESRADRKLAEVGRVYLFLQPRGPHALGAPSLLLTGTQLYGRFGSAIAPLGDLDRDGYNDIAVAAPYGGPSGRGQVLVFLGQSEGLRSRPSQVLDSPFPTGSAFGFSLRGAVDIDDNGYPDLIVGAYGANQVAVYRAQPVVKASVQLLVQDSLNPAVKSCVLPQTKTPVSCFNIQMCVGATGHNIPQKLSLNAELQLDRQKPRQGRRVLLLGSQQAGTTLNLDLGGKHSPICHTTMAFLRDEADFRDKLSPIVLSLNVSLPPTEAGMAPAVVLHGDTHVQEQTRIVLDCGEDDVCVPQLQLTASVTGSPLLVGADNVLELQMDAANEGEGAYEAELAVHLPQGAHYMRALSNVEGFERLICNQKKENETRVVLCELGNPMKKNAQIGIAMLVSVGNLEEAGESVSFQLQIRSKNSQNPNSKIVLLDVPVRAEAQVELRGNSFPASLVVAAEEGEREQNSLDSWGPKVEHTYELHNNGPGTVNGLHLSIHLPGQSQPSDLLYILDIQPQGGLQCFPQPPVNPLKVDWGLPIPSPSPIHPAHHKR
# T1 sequence (P05106 27-788): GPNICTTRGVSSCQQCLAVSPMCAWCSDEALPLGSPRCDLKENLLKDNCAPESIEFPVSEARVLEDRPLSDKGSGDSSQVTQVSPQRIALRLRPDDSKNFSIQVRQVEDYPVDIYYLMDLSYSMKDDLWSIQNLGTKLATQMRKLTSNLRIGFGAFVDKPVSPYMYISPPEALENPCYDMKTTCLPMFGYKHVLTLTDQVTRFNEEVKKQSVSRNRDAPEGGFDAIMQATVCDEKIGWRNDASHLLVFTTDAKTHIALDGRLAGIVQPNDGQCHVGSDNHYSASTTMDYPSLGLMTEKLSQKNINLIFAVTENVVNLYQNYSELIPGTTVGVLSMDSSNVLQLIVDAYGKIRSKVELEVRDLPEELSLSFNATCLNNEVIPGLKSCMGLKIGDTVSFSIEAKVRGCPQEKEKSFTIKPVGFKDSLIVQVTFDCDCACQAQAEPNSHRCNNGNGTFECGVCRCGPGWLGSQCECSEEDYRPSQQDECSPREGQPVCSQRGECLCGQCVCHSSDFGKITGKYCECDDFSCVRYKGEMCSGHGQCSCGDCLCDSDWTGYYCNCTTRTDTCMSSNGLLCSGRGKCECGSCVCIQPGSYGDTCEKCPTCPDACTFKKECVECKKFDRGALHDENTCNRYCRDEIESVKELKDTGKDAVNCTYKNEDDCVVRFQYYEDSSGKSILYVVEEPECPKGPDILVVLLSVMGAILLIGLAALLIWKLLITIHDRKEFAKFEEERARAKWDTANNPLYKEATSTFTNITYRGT
# Method: A 96-well Maxisorp plate (Nunc) was coated with GPIIb/IIIa (10 μg mL^−1, 100 μL) and incubated at 4° C. overnight. The plate was washed (5×) with buffer (50 mM Tris-HCl, 100 mM NaCl, 2 mM CaCl2, 0.05% Tween20, pH 7.4). Blocking solution (3.5% BSA, 100 μL) was added to the well and incubated at 37° C. for 3 hours. The plate was washed (5×) with buffer. Peptides (50 μL) and fibrinogen (40nM, 50 μL) were added to the plate and incubated at room temperature for 3 hours. The plate was washed (5×) and antibody (goat polyclonal to fibrinogen (HRP), 1:20,000 dilution, 100 μL) was added to the plate and incubated for 1 hour at room temperature. The plate was washed (5×) and substrate (2,2′-azino-bis(3-ethylbenzthiazoline-6-sulphonic acid, ABTS, 100 μL) was added to the wells and allowed to react for 5 minutes. The absorbance was measured (Perkin Elmer Wallac Victor2 1420 Multilabel Counter) at 405 nm. The data was analyzed using Graphpad Prism 5.
# Glycoprotein Iib-IIIa (GPIIb/IIIa) is present on platelets and its binding to fibrinogen has been associated with platelet aggregation.
# A competitive binding ELISA was used to determine the potency of the multivalent RGD peptides. GPIIb/IIIa is known to contain the integrins αIIβ and β3, which bind RGD peptide sequences. Fibrinogen is also known to bind to these integrins. The ELISA was performed to quantitate the inhibition of bound fibrinogen in the presence of RGD peptide. The ELISA was performed as described previously.4 Briefly, GPIIb/IIIa was incubated in a 96 well Maxisorp plate (Nunc) (10 μg ml^−1) overnight at 4° C. The plate was blocked for non-specific interactions using BSA (3.5 wt%, 3 hr). Varying peptides concentrations and fibrinogen (40 nM) was incubated in the plate for 3 hr at room temperature. Fibrinogen antibody (HRP) (1:20,000 dilution) as added (1 hr). The substrate (2,2′-Azinobis[3-ethylbenzothiazoline-6-sulfonic acid]-diammonium salt-ABTS) was added and the absorbance measured at 405 nm. Peptide concentrations are reported as total molecule molarity as opposed to normalized [RGD].
# [2] = test system: MIN6 cells; experiment: MIN6 cells encapsulated in PEG diacrylate gels with RGD, metabolic activity by Alamar Blue assay; format: cell-based; conditions: FIG. 19; for MIN6 viability / cell survival: 100 μM RGD in PEG gel, 10-day study
# Excerpt: To test whether cyclic RGD, when encapsulated in PEG gels may enhance the survival of MIN6 cells, cyclic RGD was incorporated into PEG gels and applied to cell cultures of MIN6 cells. A cyclic RGD dimer was synthesized on-resin using Traut's reagent. The dimer contained a free thiol, which could be utilized for conjugation into PEG networks via thiol-acrylate photopolymerizations.
# To examine whether the cyclic RGD derivatives could enhance cell viability, MIN6 cells were encapsulated at a relatively low density (5×10^6 cells mL^−1, data not published) in PEG diacrylate gels with varying amounts of RGD. Cell metabolic activity was measured using an Alamar Blue assay. […] Total molar RGD concentration was held constant during the study.
molecule,measurement,setting,value
"H-CGGRGDS-NH2 [Compound #1, H-CGGRGDS-NH2]",IC50,"[1]; Table 2, mean ± SEM, triplicate, repeated twice, peptide concentration as total molecule molarity, not normalized [RGD], read-out: IC50(μM), inhibition of fibrinogen binding to GPIIb/IIIa",15.4 ± 4.2 µM
same,MIN6 viability / cell survival,[2],not able to support cell survival
N=C(N)NCCC[C@@H]1NC(=O)[C@@H](NC(=O)CNC(=O)CNC(=O)[C@@H](N)CSCC(CCC(=O)NCCCC[C@H](NC(=O)CN)C(=O)NCC(=O)NCCCCCC(=O)NCC(=O)N[C@@H](CCCCNC(=O)CCC(CSC[C@H](N)C(=O)NCC(=O)NCC(=O)N[C@H]2CSCCCOC(=O)NCCCC[C@@H](C(N)=O)NC(=O)[C@@H](Cc3ccccc3)NC(=O)[C@H](CO)NC(=O)[C@H](CC(=O)O)NC(=O)CNC(=O)[C@H](CCCNC(=N)N)NC2=O)SC[C@H](N)C(=O)NCC(=O)NCC(=O)N[C@H]2CSCCCOC(=O)NCCCC[C@@H](C(N)=O)NC(=O)[C@@H](Cc3ccccc3)NC(=O)[C@H](CO)NC(=O)[C@H](CC(=O)O)NC(=O)CNC(=O)[C@H](CCCNC(=N)N)NC2=O)C(=O)NCC(N)=O)SC[C@H](N)C(=O)NCC(=O)NCC(=O)N[C@H]2CSCCCOC(=O)NCCCC[C@@H](C(N)=O)NC(=O)[C@@H](Cc3ccccc3)NC(=O)[C@H](CO)NC(=O)[C@H](CC(=O)O)NC(=O)CNC(=O)[C@H](CCCNC(=N)N)NC2=O)CSCCCOC(=O)NCCCC[C@@H](C(N)=O)NC(=O)[C@@H](Cc2ccccc2)NC(=O)[C@H](CO)NC(=O)[C@H](CC(=O)O)NC(=O)CNC1=O (stereo partly shown) [Compound #7],IC50,[1],0.012 ± 0.003 µM
CC(=O)N[C@H]1CSC2CC3CC(C(=O)NCCCC[C@@H](C(N)=O)NC(=O)[C@@H](Cc4ccccc4)NC(=O)[C@H](CO)NC(=O)[C@H](CC(=O)O)NC(=O)CNC(=O)[C@H](CCCNC(=N)N)NC1=O)C2C3 (stereo partly shown) [Ac-c[CRGDSfK(Norbornene)]-NH2] (Ac-CRGDS[dF]K-NH2; linker 1-7 via X2),IC50,[1],0.36 ± 0.09 µM
"N=C(N)NCCC[C@@H]1NC(=O)[C@@H](NC(=O)CNC(=O)CNC(=O)[C@@H](N)CS)CSCCCOC(=O)NCCCC[C@@H](C(N)=O)NC(=O)[C@@H](Cc2ccccc2)NC(=O)[C@H](CO)NC(=O)[C@H](CC(=O)O)NC(=O)CNC1=O [Compound #2, H-CGGc[CRGDSfK(Alloc)]-NH2] (H-CGGCRGDS[dF]K-NH2; linker 4-10 via X1)",potency relative to linear RGD (compound #1),[1]; competitive binding ELISA,enhanced potency
same,MIN6 viability / cell survival,[2],increased viability
same,MIN6 metabolic activity relative to linear counterpart at the same concentration,"[2]; 400 μM RGD in PEG gel, 5×10^6 cells mL^−1",significantly enhanced metabolic activity
